“Also recorded” adds a separate entry of the source. Where a name gives a salt, the structure may show the parent alone. Read-outs that look alike come from different tables or passages of the source. Where a SMILES comes first, the peptide text is derived from it. Where no end group is shown, it is not given here.
Assays:
anthrax LF = anthrax LF (Bacillus anthracis, UniProt P15917); assay: biochemical; conditions: for inhibition at 33 µM: read-out: Percent Inhibition with 33 μM of drug, LF
human furin = target: T1, human furin (Homo sapiens, UniProt P09958); assay: Host protease FRET test, furin; format: biochemical; conditions: for inhibition at 33 µM: read-out: Percent Inhibition with 33 μM of drug, Furin
T1 construct: purchased New England Biolabs

caspase-3 = target: T2, caspase-3 (Homo sapiens, UniProt P42574); assay: Host protease FRET test, caspase-3; format: biochemical; conditions: for inhibition at 33 µM: read-out: Percent Inhibition with 33 μM of drug, Casp 3
T2 construct: purchased BioVision
T2 sequence (P42574 29-277): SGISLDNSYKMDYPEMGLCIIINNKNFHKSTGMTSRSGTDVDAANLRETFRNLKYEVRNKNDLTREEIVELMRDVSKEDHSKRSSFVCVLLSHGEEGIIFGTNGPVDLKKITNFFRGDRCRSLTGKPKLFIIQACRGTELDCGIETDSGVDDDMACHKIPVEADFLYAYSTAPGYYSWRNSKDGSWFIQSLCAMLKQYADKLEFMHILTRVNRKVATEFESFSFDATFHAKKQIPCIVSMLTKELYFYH

calpain 1 = target: T3, calpain 1 (Homo sapiens, UniProt P07384); assay: Host protease FRET test, calpain; format: biochemical; conditions: for inhibition at 33 µM: read-out: Percent Inhibition with 33 μM of drug, Calpain
T3 construct: purchased BioVision
T3 sequence (P07384 1-714): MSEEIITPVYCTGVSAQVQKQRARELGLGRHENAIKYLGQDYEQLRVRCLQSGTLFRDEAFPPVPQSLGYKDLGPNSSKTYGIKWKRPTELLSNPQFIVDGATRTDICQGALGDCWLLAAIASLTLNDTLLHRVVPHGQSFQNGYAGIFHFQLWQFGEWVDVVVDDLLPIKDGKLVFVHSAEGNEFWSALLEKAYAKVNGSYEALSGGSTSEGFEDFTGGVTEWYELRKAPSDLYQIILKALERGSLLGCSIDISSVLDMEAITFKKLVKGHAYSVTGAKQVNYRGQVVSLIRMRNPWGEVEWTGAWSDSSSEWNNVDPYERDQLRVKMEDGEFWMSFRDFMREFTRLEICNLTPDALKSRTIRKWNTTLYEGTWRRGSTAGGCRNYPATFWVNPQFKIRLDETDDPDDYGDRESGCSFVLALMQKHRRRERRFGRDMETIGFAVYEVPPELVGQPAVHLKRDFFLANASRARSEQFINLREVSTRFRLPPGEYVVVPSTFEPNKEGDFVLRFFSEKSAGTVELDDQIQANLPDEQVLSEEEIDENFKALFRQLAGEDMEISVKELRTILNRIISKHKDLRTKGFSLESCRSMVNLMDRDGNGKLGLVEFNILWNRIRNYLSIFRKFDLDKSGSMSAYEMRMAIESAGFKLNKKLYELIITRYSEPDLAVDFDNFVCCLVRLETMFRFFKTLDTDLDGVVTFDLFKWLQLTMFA
T3 sequence (P04632 1-268 partner): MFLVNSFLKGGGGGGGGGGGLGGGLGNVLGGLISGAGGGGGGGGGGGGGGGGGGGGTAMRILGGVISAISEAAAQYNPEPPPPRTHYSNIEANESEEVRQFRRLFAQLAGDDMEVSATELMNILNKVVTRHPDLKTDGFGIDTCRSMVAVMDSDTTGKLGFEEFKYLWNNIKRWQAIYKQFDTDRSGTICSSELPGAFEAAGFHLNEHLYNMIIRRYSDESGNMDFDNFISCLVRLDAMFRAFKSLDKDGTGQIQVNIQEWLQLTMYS

caspase-1 = target: T4, caspase-1 (Homo sapiens, UniProt P29466); assay: Host protease FRET test, caspase-1; format: biochemical; conditions: read-out: Percent Inhibition with 33 μM of drug, Casp 1
T4 construct: purchased BioVision
T4 sequence (P29466 120-404): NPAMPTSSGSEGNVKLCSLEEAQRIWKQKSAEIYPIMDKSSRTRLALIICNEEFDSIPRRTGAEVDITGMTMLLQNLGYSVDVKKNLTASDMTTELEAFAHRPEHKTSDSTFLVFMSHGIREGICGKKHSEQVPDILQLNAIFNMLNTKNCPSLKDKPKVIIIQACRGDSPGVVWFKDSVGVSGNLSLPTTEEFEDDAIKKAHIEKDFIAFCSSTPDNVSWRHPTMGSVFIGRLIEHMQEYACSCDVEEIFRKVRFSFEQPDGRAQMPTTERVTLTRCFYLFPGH

cathepsin B = cathepsin B (Homo sapiens, UniProt P07858); assay: Host protease FRET test, cathepsin B; format: biochemical; conditions: 33 μM drug, N/I = no FRET inhibition; for inhibition at 33 µM: read-out: Percent Inhibition with 33 μM of drug, Cath B
[1] = cited from earlier work
[2] = system: Cholera toxin treated RAW264.7 cells; format: cell-based, mouse
[3] = system: Pseudomonas aeruginosa exotoxin A treated RAW264.7 cells; format: cell-based, mouse
[4] = system: LF-PA treated mouse macrophage RAW264.7 cells; format: cell-based
[5] = system: LF-PA63 treated RAW264.7 cells; format: cell-based, mouse
[6] = 33 μM drug, FRET, N/I = no FRET inhibition

Chain of anthrax LF (P15917 34-809 limits assumed): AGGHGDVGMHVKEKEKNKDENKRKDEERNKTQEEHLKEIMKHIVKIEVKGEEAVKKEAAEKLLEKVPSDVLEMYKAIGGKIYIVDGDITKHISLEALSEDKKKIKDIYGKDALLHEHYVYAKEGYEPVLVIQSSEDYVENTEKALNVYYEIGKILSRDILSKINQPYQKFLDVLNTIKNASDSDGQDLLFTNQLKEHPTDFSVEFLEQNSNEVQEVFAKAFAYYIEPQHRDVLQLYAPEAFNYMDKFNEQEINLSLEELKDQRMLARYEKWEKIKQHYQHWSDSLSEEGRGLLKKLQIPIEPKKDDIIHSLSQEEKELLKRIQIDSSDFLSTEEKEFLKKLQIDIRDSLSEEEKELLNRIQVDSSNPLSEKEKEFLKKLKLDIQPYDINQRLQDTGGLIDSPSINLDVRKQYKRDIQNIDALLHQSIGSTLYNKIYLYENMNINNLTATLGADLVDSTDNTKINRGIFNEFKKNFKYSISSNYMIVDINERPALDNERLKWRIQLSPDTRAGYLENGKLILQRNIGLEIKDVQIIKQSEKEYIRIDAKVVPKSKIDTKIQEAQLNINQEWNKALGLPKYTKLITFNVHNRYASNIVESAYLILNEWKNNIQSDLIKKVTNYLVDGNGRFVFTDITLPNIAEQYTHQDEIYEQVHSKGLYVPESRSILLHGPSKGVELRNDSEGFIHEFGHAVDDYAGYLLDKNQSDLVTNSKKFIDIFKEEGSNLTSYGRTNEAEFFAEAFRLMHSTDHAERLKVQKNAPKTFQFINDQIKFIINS
T1 sequence (P09958 108-794): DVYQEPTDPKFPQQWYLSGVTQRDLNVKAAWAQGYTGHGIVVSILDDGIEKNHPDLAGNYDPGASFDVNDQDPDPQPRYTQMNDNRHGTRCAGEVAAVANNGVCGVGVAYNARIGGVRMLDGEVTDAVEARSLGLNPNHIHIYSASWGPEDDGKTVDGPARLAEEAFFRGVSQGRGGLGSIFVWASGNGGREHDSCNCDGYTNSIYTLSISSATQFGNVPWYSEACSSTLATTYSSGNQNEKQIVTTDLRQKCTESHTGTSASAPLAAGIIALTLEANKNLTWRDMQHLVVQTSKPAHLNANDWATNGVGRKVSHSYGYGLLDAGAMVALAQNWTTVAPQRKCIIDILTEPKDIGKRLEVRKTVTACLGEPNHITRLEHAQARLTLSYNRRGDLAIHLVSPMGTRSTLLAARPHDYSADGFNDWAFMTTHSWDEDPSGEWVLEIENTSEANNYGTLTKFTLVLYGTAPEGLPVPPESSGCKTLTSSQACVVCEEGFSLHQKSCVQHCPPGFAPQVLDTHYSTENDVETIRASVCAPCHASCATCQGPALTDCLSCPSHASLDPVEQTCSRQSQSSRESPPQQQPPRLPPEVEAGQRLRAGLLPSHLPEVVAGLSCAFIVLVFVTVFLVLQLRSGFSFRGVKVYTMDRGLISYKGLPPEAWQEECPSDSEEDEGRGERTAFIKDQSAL

Compound | IC50 (anthrax LF) [nM] | inhibition at 33 µM (anthrax LF) [%] | inhibition at 33 µM (human furin; [6]) [%] | inhibition at 33 µM (caspase-1; [6]) [%] | other results
RRRRRGGRRRR [Salmon Sperm Protamine (23-33)] | 15000 ± 10 | 93 ± 2.4 | 150 ± 5.3 | – | –
CCCCCCCCCCCCCCCC[N+](C)(C)Cc1ccccc1 [Cetalkonium chloride] | 160 ± 90 | 106 ± 1.21 | 8 ± 6.1 | 32 ± 1.17 | Percent Inhibition with 33 μM of drug, Casp 3 (caspase-3; [6]): N/I; inhibition at 33 µM (calpain 1; [6]): 68 ± 14.8%; Percent Inhibition with 33 μM of drug, Cath B (cathepsin B): N/I
MPRRRRSSSR [Salmon Sperm Protamine (1-10)] | 298000 ± 10 | 28 ± 1 | – | – | Percent Inhibition with 33 μM of drug, Furin (human furin; [6]): N/I
CCCCCCCCCCCCCCCC(=O)OC[C@H](O)[C@H]1OC(=O)C(O)=C1O [Ascorbic acid 6-palmitate] | 460 ± 260 | 99 ± 1.9 | 16 ± 0.67 | 18 ± 1.12 | Critical Micelle Concentration (CMC) [1]: 0.8 mM; inhibition at 33 µM (caspase-3; [6]): 88 ± 2.9%; inhibition at 33 µM (calpain 1; [6]): 24 ± 19.4%; Protection against CT-mediated cell killing [2]: substantial protection; Protection against PE-mediated cell killing [3]: substantial protection; Percent Inhibition with 33 μM of drug, Cath B (cathepsin B): N/I; Protection against LF-PA mediated cell killing [4]: complete protection
CSCC[C@H](NC(=O)[C@H](C)NC(=O)[C@@H](N)CCCNC(=N)N)C(=O)N[C@@H](CCCNC(=N)N)C(=O)N[C@@H](CS)C(=O)N[C@@H](CS)C(=O)N[C@@H](CCCNC(=N)N)C(=O)N1CCC[C@H]1C(=O)N[C@@H](CCCNC(=N)N)C(=O)N[C@@H](Cc1ccc(O)cc1)C(=O)N[C@@H](CCCNC(=N)N)C(=O)N1CCC[C@H]1C(=O)N[C@@H](CCCNC(=N)N)C(=O)N[C@@H](CS)C(=O)N[C@@H](CCCNC(=N)N)C(=O)N[C@@H](CCCNC(=N)N)C(=O)N[C@@H](Cc1c[nH]cn1)C(=O)O [Human Sperm Protamine (35-51)] (H-RAMRCCRPRYRPRCRRH-OH; N-terminus and C-terminus assumed) | – | 55 ± 0.9 | – | – | –
CCCCCCCCCCCCOS(=O)(=O)O [Sodium lauryl sulfate] | 2900 ± 80 | 93 ± 0.57 | – | – | Critical Micelle Concentration (CMC) [1]: 8 mM; inhibition at 33 µM (caspase-3): 83 ± 2.7%; inhibition at 33 µM (calpain 1): 95 ± 6.02%; inhibition at 33 µM (caspase-1): 7 ± 3.06%; inhibition at 33 µM (human furin): 2 ± 4.56%
CCOc1nc2cccc(C(=O)OC(C)OC(=O)OC3CCCCC3)c2n1Cc1ccc(-c2ccccc2-c2nnn[nH]2)cc1 (stereo not shown) [Candesartan cilexetil] | 400 ± 20 | 100 ± 0.07 | 88 ± 0.12 | 16 ± 0.1 | Percent Inhibition with 33 μM of drug, Casp 3 (caspase-3; [6]): N/I; Percent Inhibition with 33 μM of drug, Calpain (calpain 1; [6]): N/I; inhibition at 33 µM (cathepsin B): 10 ± 3.1%
CCCCC(CC)COC(=O)CC(C(=O)OCC(CC)CCCC)S(=O)(=O)O (stereo not shown) [Docusate sodium] | 670 ± 50 | 95 ± 0.28 | 69 ± 0.13 | 35 ± 0.01 | Percent Inhibition with 33 μM of drug, Casp 3 (caspase-3; [6]): N/I; inhibition at 33 µM (calpain 1; [6]): 130 ± 0.19%; Percent Inhibition with 33 μM of drug, Cath B (cathepsin B): N/I
MPRRRRSSSRPVRRRRRPRVSR [Salmon Sperm Protamine (1-22)] | 1000 ± 40 | 98 ± 0.6 | 91 ± 1.8 | – | –
PVRRRRRPRVSRRRRRRGGRRRR [Salmon Sperm Protamine (11-33)] | 10000 ± 40 | 99 ± 0.2 | 86 ± 1.2 | – | –
CCCCCCCCCCCCc1ccccc1S(=O)(=O)O [Sodium dodecyl benzenesulfonate] | – | 104 ± 0.4 | 6 ± 3.34 | 14 ± 2.06 | inhibition at 33 µM (caspase-3; [6]): 77 ± 2.5%; inhibition at 33 µM (calpain 1; [6]): 26 ± 7.01%; IC50 (anthrax LF; read-out: LF IC50): 590 ± 80 nM; inhibition at 33 µM (cathepsin B): 96 ± 2.5%
QRQRSRRRRRRSCQTRR [Human Sperm Protamine (18-34)] | 24000 ± 150 | 72 ± 2.1 | – | – | –
PVRRRRRPRVSR [Salmon Sperm Protamine (11-22)] | 5000 ± 130 | 95 ± 0.1 | 84 ± 33 | – | –
MARYRCCRSQSRSRYYRQRQRSRRRRRRSCQTRRRAMRCCRPRYRPRCRRH (cysteines drawn unpaired) [Human Sperm Protamine (1-51)] | – | 88 ± 1.2 | 97 ± 1.7 | – | –
CSCC[C@H](N)C(=O)N[C@@H](C)C(=O)N[C@@H](CCCNC(=N)N)C(=O)N[C@@H](Cc1ccc(O)cc1)C(=O)N[C@@H](CCCNC(=N)N)C(=O)N[C@@H](CS)C(=O)N[C@@H](CS)C(=O)N[C@@H](CCCNC(=N)N)C(=O)N[C@@H](CO)C(=O)N[C@@H](CCC(N)=O)C(=O)N[C@@H](CO)C(=O)N[C@@H](CCCNC(=N)N)C(=O)N[C@@H](CO)C(=O)N[C@@H](CCCNC(=N)N)C(=O)N[C@@H](Cc1ccc(O)cc1)C(=O)N[C@@H](Cc1ccc(O)cc1)C(=O)N[C@@H](CCCNC(=N)N)C(=O)O [Human Sperm Protamine (1-17)] (H-MARYRCCRSQSRSRYYR-OH; N-terminus and C-terminus assumed) | – | 37 ± 0.7 | – | – | –
MPRRRRSSSRPVRRRRRPRVSRRRRRRGGRRRR [Salmon Sperm Protamine] | – | 107 ± 1.4 | 96 ± 1.2 | – | Protection against cell death induced by LF and PA63 [5]: reduces cellular sensitivity; also recorded: effectively protected all cells; inhibition at 33 µM (caspase-3; [6]): 87 ± 2.8%; Protection against CT-mediated cell killing [2]: substantial protection; Protection against PE-mediated cell killing [3]: substantial protection; inhibition at 33 µM (cathepsin B): 65 ± 0.5%; Protection against LF-PA mediated cell killing [4]: complete protection
CCCCCCCCCCCC[N+](C)(C)CCOc1ccccc1 [Domiphen bromide] | 290 ± 30 | 103 ± 0.82 | 7 ± 6.64 | 17 ± 2.17 | Percent Inhibition with 33 μM of drug, Casp 3 (caspase-3; [6]): N/I; Percent Inhibition with 33 μM of drug, Calpain (calpain 1; [6]): N/I; inhibition at 33 µM (cathepsin B): 23 ± 1.5%

Source: PMC5050486 (Scientific Reports, 2016)
